Assays:
Assay type in all cases: in vivo
[1] = system: Musca domestica; assay: Insecticidal test against Musca domestica; settings: 24 h, 500 ppm water dilution, 0.7 ml on filter paper with sucrose, female adults, after 1 day, read-out: mortality
Procedure: In the bottom of a polyethylene cup having a diameter of 5.5 cm was placed a piece of filter paper having the same size. A 200-fold water dilution (500 ppm) of a test compound formulation obtained according to Formulation Example 1 was added dropwise at a volume of 0.7 ml on the filter paper, and about 30 mg of sucrose as a diet was uniformly placed thereon. Ten female adults of houseflies (Musca domestica) were set free in the cup, and the cup was kept covered. After 1 day, the survival of the adults was determined to determine the mortality.

[2] = system: Tetranychus urticae; assay: Acaricidal test against Tetranychus urticae; design: key: −: almost no damage and completely no surviving mites; ±: slight damage and some few surviving mites; +: rather smaller damage and a rather fewer surviving mites than non-treatment case; ++: same as non-treatment case; settings: 500 ppm water dilution, 15 ml sprayed over brush bean with female adults set free 6 days before; after 8 days
Procedure: About twenty female adults of Tetranychus urticae were set free on brush bean (Phaseolus vulgaris) in the primary leaf stage, which had been potted in a plastic cup for 7 days after the seeding. After 6 days, a 200-fold water dilution (500 ppm) of a test compound formulation obtained according to Formulation Example 1 or 2 was sprayed at a volume of 15 ml over the plant. After 8 days, each compound was evaluated for acaricidal activity on the following criteria.
−: almost no damage and completely no surviving mites
±: slight damage and some few surviving mites
+: rather smaller damage and a rather fewer surviving mites than non-treatment case
++: same as non-treatment case

[3] = system: Cydia pomonella; assay: Insecticidal test against Cydia pomonella; settings: 168 h, 100 ppm water dilution, 0.2 ml on surface of artificial diet, eggs just before hatching, after 7 days
In short: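 A 100 ppm aqueous dilution of formulated compound (0.2 ml) was spread onto 3 g artificial diet and air-dried. About 20 near-hatching Cydia pomonella eggs on wax paper were added, four replicates per treatment. Larval mortality was recorded after 7 days.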

[4] = system: Spodoptera litura; assay: Insecticidal test against Spodoptera litura; settings: 144 h, 500 ppm water dilution, 2 ml absorbed in 13 g artificial diet, fourth-instar larvae, after 6 days
Procedure: A 200-fold water dilution (500 ppm) of a test compound formulation obtained according to Formulation Example 1 or 2 was absorbed at a volume of 2 ml in an artificial diet (Insecta LF available from Nihon Nosan K.K.) having a weight of 13 g, which had been prepared in a polyethylene cup having a diameter of 11 cm. Five fourth-instar larvae of Spodoptera litura were set free in the cup. After 6 days, the survival of the larvae was examined to determine the mortality.

[5] = system: Plutella xylostella; assay: Insecticidal test against Plutella xylostella; settings: 96 h, 50 ppm water dilution sprayed over potted cabbages, 25 ml per pot, third-instar larvae, after 4 days, read-out: mortality
Procedure: To a water dilution (50 ppm) of a test compound formulation obtained according to Formulation Example 1 was added a spreading agent (New RINOU available from Nihon Noyaku K.K.) at a dilution ratio of 3000-fold. The dilution was sprayed over potted cabbages at the four to five leaf stage at a volume of 25 ml per pot. After the treated plants were air dried, ten third-instar larvae of Plutella xylostella were set free on each pot. After 4 days, the mortality was determined.

[6] = system: Helicoverpa armigera; assay: Insecticidal test against Helicoverpa armigera; settings: 120 h, 100 ppm water dilution, cotton leaf fragment immersed 10 seconds, third-instar larvae, after 5 days
Procedure: A cotton leaf fragment (diameter, 5 cm) was immersed for 10 seconds Lin a water dilution (100 ppm) of a test compound formulation obtained according to Formulation Example 1. This fragment was taken out from the dilution, air dried, and placed in a polyethylene cup having a diameter of 5.5 cm. One third-instar larva of Helicoverpa armigera was set free in each cup. Ten larvae were used for each treatment. After 5 days, the mortality of the larvae was determined.

[7] = system: Heliothis virescens; assay: Insecticidal test against Heliothis virescens; settings: 168 h, 100 ppm water dilution, 0.2 ml on surface of artificial diet, second-instar larvae, after 7 days
Procedure: A water dilution (100 ppm) of a test compound formulation obtained according to Formulation Example 1 was added dropwise at a volume of 0.2 ml and uniformly spread over the surface of an artificial diet having a weight of 3 g, which had been prepared in a 30 ml plastic cup. After air drying, one second-instar larva of Heliothis virescens was set free in each cup. Ten larvae were used for each treatment. After 7 days, the mortality of the larvae was determined.

Structure (SMILES) | mortality at 500 µg/mL [1] [%] | acaricidal activity [2] | mortality at 100 µg/mL [3] [%] | mortality at 500 µg/mL [4] [%] | mortality at 50 µg/mL [5] [%] | mortality at 100 µg/mL [6] [%] | mortality at 100 µg/mL [7] [%]
CC(C)(C)ON=CCOCCCCOc1c(Cl)cc(OCC=C(Cl)Cl)cc1Cl [(6), 4-(2,6-dichloro-4-(3,3-dichloro-2-propenyloxy)phenoxy)butyloxyacetaldehyde O-tert-butyloxime] | ≥ 80 | “−” or “±” | ≥ 80 |  |  |  | 
CC(COCCOCCOc1c(Cl)cc(OCC=C(Cl)Cl)cc1Cl)=NOC(C)(C)C [(203), 2-(2-(2,6-dichloro-4-(3,3-dichloro-2-propenyloxy)phenoxy)-ethoxy)ethoxyacetone O-tert-butyloxime] | ≥ 80 |  |  | ≥ 80 |  |  | 
CCON=C(C)COc1ccc(OCC=CCl)cc1 [(A), 4-(3-chloro-2-propenyloxy)phenoxyacetone O-ethyloxime, reference compound] | 0 | + |  | 0 | 0 | 0 | 
CCCC=NOCCCCCOc1c(Cl)cc(OCC=C(Cl)Cl)cc1Cl [(542), butanal O-(5-(2,6-dichloro-4-(3,3-dichloro-2-propenyloxy)phenoxy)pentyl)oxime] | ≥ 80 | “−” or “±” |  |  |  |  | 
CC(=NOCCCCCOc1c(Cl)cc(OCC=C(Cl)Cl)cc1Cl)C(C)C [(582), 3-methyl-2-butanone O-(5-(2,6-dichloro-4-(3,3-dichloro-2-propenyloxy)phenoxy)pentyl)oxime] |  | “−” or “±” |  |  |  | ≥ 80 | 
CC(COCCCCOc1c(Cl)cc(OCC=C(Cl)Cl)cc1Cl)=NOC(C)(C)C [(103), 4-(2,6-dichloro-4-(3,3-dichloro-2-propenyloxy)phenoxy)butyloxyacetone O-tert-butyloxime] |  |  |  | ≥ 80 | ≥ 80 |  | 
CC(C)CCON=Cc1ccc(Oc2ccccc2)cc1 [(B), 4-phenoxy-benzaldehyde O-(3-methylbutyl)oxime, reference compound] | 0 | + |  | 0 |  |  | 
CC(C)(C)ON=CCOCCCOc1c(Cl)cc(OCC=C(Cl)Cl)cc1Cl [(90), 3-(2,6-dichloro-4-(3,3-dichloro-2-propenyloxy)phenoxy)propyloxyacetaldehyde O-tert-butyloxime] |  |  | ≥ 80 | ≥ 80 | ≥ 80 |  | ≥ 80
CCCON=Cc1ccc(COc2c(Cl)cc(OCC=C(Cl)Cl)cc2Cl)cc1 [(327), 4-(2,6-dichloro-4-(3,3-dichloro-2-propenyloxy)phenoxymethyl)benzaldehyde O-propyloxime] |  | “−” or “±” |  |  | ≥ 80 | ≥ 80 | 
CC(C)(C)ON=CCCCCCOc1c(Cl)cc(OCC=C(Cl)Cl)cc1Cl [(134), 6-(2,6-dichloro-4-(3,3-dichloro-2-propenyloxy)phenoxy)hexanal O-tert-butyloxime] |  |  |  | ≥ 80 | ≥ 80 |  | ≥ 80
CC(COCCCCCOc1c(Cl)cc(OCC=C(Cl)Cl)cc1Cl)=NOCC(Cl)(Cl)Cl [(173), 5-(2,6-dichloro-4-(3,3-dichloro-2-propenyloxy)phenoxy)pentyloxyacetone O-(2,2,2-trichloroethyl)oxime] | ≥ 80 | “−” or “±” |  |  |  |  | 
CC(C)(C)ON=CCOc1c(Cl)cc(OCC=C(Cl)Cl)cc1Cl [(131), (2,6-dichloro-4-(3,3-dichloro-2-propenyloxy)phenoxy)acetaldehyde O-tert-butyloxime] |  |  |  | ≥ 80 |  |  | 
CON=Cc1ccc(OCCCCOc2c(Cl)cc(OCC=C(Cl)Cl)cc2Cl)cc1 [(306), 4-(4-(2,6-dichloro-4-(3,3-dichloro-2-propenyloxy)phenoxy)butyloxy)benzaldehyde O-methyloxime] |  | “−” or “±” | ≥ 80 |  |  |  | 
CC(CC(C)(C)C)=NOCCCCCOc1c(Cl)cc(OCC=C(Cl)Cl)cc1Cl [(592), 4,4-dimethyl-2-pentanone O-(5-(2,6-dichloro-4-(3,3-dichloro-2-propenyloxy)phenoxy)pentyl)oxime] |  | “−” or “±” |  |  |  |  | 
CC(COCCCCCOc1c(Cl)cc(OCC=C(Cl)Cl)cc1Cl)=NOC(C)(C)C [(104), 5-(2,6-dichloro-4-(3,3-dichloro-2-propenyloxy)phenoxy)pentyloxyacetone O-tert-butyloxime] |  | “−” or “±” |  | ≥ 80 | ≥ 80 | ≥ 80 | ≥ 80
CC(C)(C)ON=CCOCCCCCCOc1c(Cl)cc(OCC=C(Cl)Cl)cc1Cl [(91), 6-(2,6-dichloro-4-(3,3-dichloro-2-propenyloxy)phenoxy)hexyloxyacetaldehyde O-tert-butyloxime] |  |  | ≥ 80 | ≥ 80 | ≥ 80 | ≥ 80 | ≥ 80
CCON=C(CC)c1ccc(OCCCOc2c(Cl)cc(OCC=C(Cl)Cl)cc2Cl)cc1 [(318), 4′-(3-(2,6-dichloro-4-(3,3-dichloro-2-propenyloxy)phenoxy)propyloxy)propiophenone O-ethyloxime] | ≥ 80 | “−” or “±” |  |  |  | ≥ 80 | 
CC(COCCCCCOc1c(Cl)cc(OCC=C(Cl)Cl)cc1Cl)=NOCC=C(Cl)Cl [(47), 5-(2,6-dichloro-4-(3,3-dichloro-2-propenyloxy)phenoxy)pentyloxyacetone O-(3,3-dichloro-2-propenyl)oxime] |  |  | ≥ 80 | ≥ 80 | ≥ 80 |  | ≥ 80
CC(CC(C)C)=NOCCCCCCOc1c(Cl)cc(OCC=C(Cl)Cl)cc1Cl [(589), 4-methyl-2-pentanone O-(6-(2,6-dichloro-4-(3,3-dichloro-2-propenyloxy)phenoxy)hexyl)oxime] |  | “−” or “±” |  |  | ≥ 80 |  | 
ClC(Cl)=CCON=CCOCCCCCCOc1c(Cl)cc(OCC=C(Cl)Cl)cc1Cl [(34), 6-(2,6-dichloro-4-(3,3-dichloro-2-propenyloxy)phenoxy)hexyloxyacetaldehyde O-(3,3-dichloro-2-propenyl)oxime] |  |  | ≥ 80 | ≥ 80 | ≥ 80 |  | ≥ 80
CC(C)(C)ON=CCCOc1c(Cl)cc(OCC=C(Cl)Cl)cc1Cl [(133), 3-(2,6-dichloro-4-(3,3-dichloro-2-propenyloxy)phenoxy)propionaldehyde O-tert-butyloxime] |  |  |  | ≥ 80 |  |  | 
ClC(Cl)=CCON=CCOCCCOc1c(Cl)cc(OCC=C(Cl)Cl)cc1Cl [(33), 3-(2,6-dichloro-4-(3,3-dichloro-2-propenyloxy)phenoxy)propyloxyacetaldehyde O-(3,3-dichloro-2-propenyl)oxime] |  |  | ≥ 80 | ≥ 80 | ≥ 80 |  | ≥ 80
